This is an account of results in patent US20130209515A1, “ANTI-INFECTIVE AND IMMUNOMODULATORY COMPOUNDS” (priority 2005, published 2013).

The experiment relates to PA14. The experiment is described as follows: Neonatal mouse lung infection model, lung histopathology. It counts as in vivo, mice. How it is done: We next assessed the morphological dynamics of PA14 infection in the presence of 2AA in a neonatal mouse lung infection model (Tang et al., Infection & Immunity 64:37-43, 1996), which is relevant to CF. A minimum inoculum of 1.5×10^5 PA14 cells/animal is 100% lethal in this model. Mice were treated with 2AA 4 days pre-infection, sacrificed at 24, 48, and 72 hr post-infection, and lung histopathology was assessed and compared to that of controls. PA14 infection alone produces rapidly developing inflammation that by 24 hr presents with red hepatization and development of lobular pneumonia. By 48 hours, the lung pathology includes most of the parenchyma with extensive formation of bacteria-filled necrotic foci (FIG. 12B). These observations are also consistent with our previous mortality studies using this lung model that indicate 100% mortality by 60 hr.

As to `CC(=O)c1ccccc1N` [2AA, 2′-aminoacetophenone], the “development of lung inflammation in response to PA14 infection” value (2AA 4 days pre-infection) is recorded as “greatly delayed rates of development of inflammation”. Also, where the note is “PA14 infection 4 days post-2AA treatment, 48 hours (FIG. 12C)”, the lung histopathology result is on record as “Slight peribronchial infiltrate of inflammatory cells is present at 48 hours but no significant interstitial involvement”.
